According to ChEMBL document CHEMBL1132049, “Synthesis of novel analogues of the delta opioid ligand SNC-80 using REM resin” (Bioorg Med Chem Lett, 1999):

Experiments:
[1] = target: T1, Delta-type opioid receptor (Homo sapiens, UniProt P41143); assay: Binding inhibition of [3H]- -naltrindole (0.15 nM) to membranes in CHO cells expressing Opioid receptor delta 1; format: cell-based
Mu-type opioid receptor = Mu-type opioid receptor (Rattus norvegicus, UniProt P33535); assay: Binding affinity towards mu opioid receptor using [3H]- -DAMGO (1.5 nM) as radioligand in rat brain membranes; format: cell membranes
[2] = target: Kappa-type opioid receptor (Cavia porcellus, UniProt P41144); assay: Binding affinity towards Opioid receptor kappa 1 using [3H]- U-69,593 (1.5 nM) as radioligand in guinea pig brain membranes; format: cell membranes, Membrane
[3] = target: T1, Delta-type opioid receptor; assay: Compound was tested for inhibition of binding of [3H]- -naltrindole (0.15 nM) to membranes from CHO cells expressing human delta opioid receptor; format: cell membranes

Mu-type opioid receptor, sequence (P33535 whole entry): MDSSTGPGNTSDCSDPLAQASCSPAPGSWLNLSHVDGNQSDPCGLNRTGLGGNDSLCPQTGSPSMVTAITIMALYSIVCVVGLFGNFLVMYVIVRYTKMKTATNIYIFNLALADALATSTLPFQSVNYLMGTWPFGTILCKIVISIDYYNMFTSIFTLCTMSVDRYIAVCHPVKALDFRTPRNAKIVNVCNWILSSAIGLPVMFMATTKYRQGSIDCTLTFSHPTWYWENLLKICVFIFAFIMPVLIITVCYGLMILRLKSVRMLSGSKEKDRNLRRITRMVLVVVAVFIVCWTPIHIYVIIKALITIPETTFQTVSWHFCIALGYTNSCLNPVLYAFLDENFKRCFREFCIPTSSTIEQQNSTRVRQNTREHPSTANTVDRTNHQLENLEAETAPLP
T1 sequence (P41143 whole entry): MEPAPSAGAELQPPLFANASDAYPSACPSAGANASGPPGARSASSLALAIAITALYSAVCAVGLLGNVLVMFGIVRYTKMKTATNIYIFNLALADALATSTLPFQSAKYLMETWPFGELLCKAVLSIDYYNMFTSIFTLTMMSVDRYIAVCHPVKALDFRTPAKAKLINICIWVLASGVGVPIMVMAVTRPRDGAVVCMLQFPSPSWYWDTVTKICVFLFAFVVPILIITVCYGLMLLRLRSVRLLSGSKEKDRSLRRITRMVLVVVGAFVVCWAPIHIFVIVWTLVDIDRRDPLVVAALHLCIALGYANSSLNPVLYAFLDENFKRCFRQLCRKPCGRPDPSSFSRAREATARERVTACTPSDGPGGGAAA
Kappa-type opioid receptor, sequence (P41144 whole entry): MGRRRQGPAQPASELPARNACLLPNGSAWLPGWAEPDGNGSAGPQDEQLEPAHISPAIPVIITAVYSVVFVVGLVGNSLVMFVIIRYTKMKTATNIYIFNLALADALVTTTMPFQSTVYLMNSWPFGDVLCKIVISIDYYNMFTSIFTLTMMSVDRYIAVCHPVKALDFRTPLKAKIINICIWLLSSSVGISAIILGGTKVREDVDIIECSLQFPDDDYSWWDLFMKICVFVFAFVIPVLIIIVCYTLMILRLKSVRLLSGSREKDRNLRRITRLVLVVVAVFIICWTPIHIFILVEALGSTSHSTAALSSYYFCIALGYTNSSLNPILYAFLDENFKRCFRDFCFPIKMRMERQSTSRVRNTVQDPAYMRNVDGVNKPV

Structure (SMILES)	IC50 [1]	IC50 (Mu-type opioid receptor)	IC50 [2]	IC50 [3]
C=CCN1C[C@H](C)N([C@H](c2ccccc2)c2ccc(C(=O)N(CC)CC)cc2)C[C@H]1C	1.1 nM	6500 nM	> 10000 nM	
C=CCN1CCN(C(c2ccccc2)c2ccc(C(=O)Nc3ccc(OC)cc3)cc2)CC1 (configuration not stated)	1900 nM			
C=CCN1CCN(C(c2ccccc2)c2ccc(C(=O)N(CCC)CC3CC3)cc2)CC1 (configuration not stated)	3 nM	> 10000 nM		
C=CCN1CCN(C(c2ccccc2)c2ccc(C(=O)N(Cc3cccnc3)CC(OCCC)OCCC)cc2)CC1 (configuration not stated)	4 nM	> 10000 nM		
C=CCN1CCN(C(c2ccccc2)c2ccc(-c3ccccn3)cc2)CC1 (configuration not stated)	250 nM			
C=CCN1CCN(C(c2ccccc2)c2ccc(C(=O)N(CC)CC)cc2)CC1 (configuration not stated)		> 10000 nM		5 nM
C=CCN1CCN(C(c2ccccc2)c2ccc(C(=O)O)cc2)CC1 (configuration not stated)	8100 nM			
C=CCN1C[C@H](C)N(C(c2ccccc2)c2ccccc2)C[C@H]1C	420 nM	380 nM		
C=CCN1C[C@H](C)N([C@@H](c2ccc(C(=S)N(CC)CC)cc2)c2cccc(OC)c2)C[C@H]1C	5.3 nM	6300 nM	8600 nM	
C=CCN1CCN(C(c2ccccc2)c2ccc(C(=O)OC)cc2)CC1 (configuration not stated)	607 nM			
C=CCN1CCN(C(c2ccccc2)c2ccc(-c3cccs3)cc2)CC1 (configuration not stated)	2600 nM			
C=CCN1C[C@H](C)N([C@@H](c2ccc(C(=O)O)cc2)c2cccc(OC)c2)C[C@H]1C	450 nM	> 10000 nM		
C=CCN1CCN([C@@H](c2ccccc2)c2ccc(C(=O)N(CC)CC)cc2)CC1	4.1 nM	> 10000 nM	> 10000 nM	
C=CCN1CCN(C(c2ccccc2)c2ccc(C(=O)OCC)cc2)CC1 (configuration not stated)	1390 nM			
C=CCN1C[C@H](C)N([C@@H](c2ccc(-c3ccccn3)cc2)c2cccc(OC)c2)C[C@H]1C	22 nM	6400 nM	2100 nM	
C=CCN1CCN(C(c2ccccc2)c2ccc(-c3cccnc3)cc2)CC1 (configuration not stated)	500 nM			
C=CCN1CCN(C(c2ccccc2)c2ccc(C(=O)N(CCC)CCC)cc2)CC1 (configuration not stated)	7.2 nM	41600 nM		
C=CCN1CCN(C(c2ccccc2)c2ccc(C(=O)N(C)C)cc2)CC1 (configuration not stated)	44.3 nM	> 50000 nM		
C=CCN1CCN(C(c2ccccc2)c2ccc(-c3ccccc3)cc2)CC1 (configuration not stated)	1720 nM			
C=CCN1CCN([C@H](c2ccc(C(=O)N(CC)CC)cc2)c2cccc(OC)c2)CC1	7.4 nM	> 10000 nM	> 10000 nM	
C=CCN1CCN(C(c2ccccc2)c2ccc(C(=O)N3CCCCC3)cc2)CC1 (configuration not stated)	82.4 nM	> 21600 nM		
C=CCN1C[C@H](C)N([C@@H](c2ccc(C(=O)OC)cc2)c2cccc(OC)c2)C[C@H]1C	240 nM	3600 nM		
C=CCN1CCN(C(c2ccccc2)c2ccc(C(=O)NCC)cc2)CC1 (configuration not stated)	360 nM			
